The structures appear in SMILES notation. pEC50: −log10 of the molar value.

From ChEMBL document CHEMBL1221226 (Nat Chem Biol, 2009) come the findings set out here.

One test addresses Glucagon receptor (Homo sapiens, UniProt P47871). Kind of test: Agonist activity at GCGR expressed in HEK293 cells assessed as stimulation of cAMP production by luciferase reporter gene assay. It counts as functional, cell-based. A general note: cAMP levels reflect the balance of adenylyl cyclase and phosphodiesterase activity.
Test [1] addresses Glucagon-like peptide 1 receptor (Homo sapiens, UniProt P43220). Kind of test: Agonist activity at GLP1R expressed in HEK293 cells assessed as stimulation of cAMP production by luciferase reporter gene assay. It counts as functional, cell-based.

Chain of Glucagon-like peptide 1 receptor (P43220 whole entry): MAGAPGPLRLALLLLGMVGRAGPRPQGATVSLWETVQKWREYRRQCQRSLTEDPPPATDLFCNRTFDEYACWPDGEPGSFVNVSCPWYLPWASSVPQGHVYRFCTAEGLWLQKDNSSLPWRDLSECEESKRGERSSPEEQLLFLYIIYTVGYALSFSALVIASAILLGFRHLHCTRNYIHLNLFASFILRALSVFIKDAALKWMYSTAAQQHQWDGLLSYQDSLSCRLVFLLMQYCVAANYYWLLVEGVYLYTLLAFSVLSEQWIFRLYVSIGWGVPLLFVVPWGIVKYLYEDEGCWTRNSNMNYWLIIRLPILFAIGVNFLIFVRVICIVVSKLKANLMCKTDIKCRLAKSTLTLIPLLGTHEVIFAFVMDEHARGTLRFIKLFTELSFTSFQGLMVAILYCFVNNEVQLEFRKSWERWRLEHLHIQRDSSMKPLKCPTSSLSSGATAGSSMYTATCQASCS
Chain of Glucagon receptor (P47871 whole entry): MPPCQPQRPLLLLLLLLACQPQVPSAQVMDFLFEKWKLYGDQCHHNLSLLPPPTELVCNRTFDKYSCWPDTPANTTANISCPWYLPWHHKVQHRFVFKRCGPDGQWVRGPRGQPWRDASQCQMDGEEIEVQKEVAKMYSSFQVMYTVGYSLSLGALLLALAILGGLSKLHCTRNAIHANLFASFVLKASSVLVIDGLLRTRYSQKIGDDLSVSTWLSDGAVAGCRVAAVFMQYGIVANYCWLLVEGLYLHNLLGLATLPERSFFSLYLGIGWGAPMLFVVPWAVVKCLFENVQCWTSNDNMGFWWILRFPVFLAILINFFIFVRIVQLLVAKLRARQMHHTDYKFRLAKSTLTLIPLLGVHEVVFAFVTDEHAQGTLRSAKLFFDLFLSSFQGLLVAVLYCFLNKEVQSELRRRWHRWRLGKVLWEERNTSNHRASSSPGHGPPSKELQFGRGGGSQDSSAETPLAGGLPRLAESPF

For orientation: pEC50 means −log10 of the EC50, conventionally taken in molar units. As for `CSCC[C@H](NC(=O)[C@H](CC(C)C)NC(=O)[C@H](Cc1c[nH]c2ccccc12)NC(=O)[C@H](CCC(N)=O)NC(=O)[C@@H](NC(=O)[C@H](Cc1ccccc1)NC(=O)[C@H](CC(=O)O)NC(=O)[C@H](CCC(N)=O)NC(=O)[C@H](C)NC(=O)[C@H](CCCNC(=N)N)NC(=O)[C@H](CCCNC(=N)N)NC(=O)[C@H](CC(=O)O)NC(=O)[C@H](CC(=O)O)NC(=O)[C@H](CC(C)C)NC(=O)[C@H](Cc1ccc(O)cc1)NC(=O)[C@H](CCCCN)NC(=O)[C@H](CO)NC(=O)[C@H](Cc1ccc(O)cc1)NC(=O)[C@H](CC(=O)O)NC(=O)[C@H](CO)NC(=O)[C@@H](NC(=O)[C@H](Cc1ccccc1)NC(=O)[C@@H](NC(=O)CNC(=O)[C@H](CCC(N)=O)NC(=O)[C@H](CO)N[C@@H](Cc1cnc[nH]1)C(=O)O)[C@@H](C)O)[C@@H](C)O)C(C)C)C(=O)N[C@@H](CC(N)=O)C(=O)N[C@H](C(N)=O)[C@@H](C)O`, the pEC50 at Glucagon receptor is 10.17; in test [1], 9.24.
For `CSCC[C@H](NC(=O)[C@H](CC(C)C)NC(=O)[C@H](Cc1c[nH]c2ccccc12)NC(=O)[C@H](CCC(N)=O)NC(=O)[C@@H](NC(=O)[C@H](Cc1ccccc1)NC(=O)[C@H](CC(=O)O)NC(=O)[C@H](CCC(N)=O)NC(=O)[C@H](C)NC(=O)[C@H](CCCN=C(N)N)NC(=O)[C@H](CCCN=C(N)N)NC(=O)CNC(=O)[C@H](CC(=O)O)NC(=O)[C@H](CC(C)C)NC(=O)[C@H](Cc1ccc(O)cc1)NC(=O)[C@H](CCCCN)NC(=O)[C@H](CO)NC(=O)[C@H](Cc1ccc(O)cc1)NC(=O)[C@H](CC(=O)O)NC(=O)[C@H](CO)NC(=O)[C@@H](NC(=O)[C@H](Cc1ccccc1)NC(=O)[C@@H](NC(=O)CNC(=O)[C@H](CCC(N)=O)NC(=O)[C@H](CO)N[C@@H](Cc1cnc[nH]1)C(=O)O)[C@@H](C)O)[C@@H](C)O)C(C)C)C(=O)N[C@@H](CC(N)=O)C(=O)N[C@H](C(N)=O)[C@@H](C)O` the same measures were 9.89 and 9.24.
Taken in the same sequence, the figures for `CSCC[C@H](NC(=O)[C@H](CC(C)C)NC(=O)[C@H](Cc1c[nH]c2ccccc12)NC(=O)[C@H](CCC(N)=O)NC(=O)[C@@H](NC(=O)[C@H](Cc1ccccc1)NC(=O)[C@H](CC(=O)O)NC(=O)[C@H](CCC(N)=O)NC(=O)[C@H](C)NC(=O)[C@H](CCCNC(=N)N)NC(=O)[C@H](CCCNC(=N)N)NC(=O)[C@@H](NC(=O)[C@H](CC(=O)O)NC(=O)[C@H](CC(C)C)NC(=O)[C@H](Cc1ccc(O)cc1)NC(=O)[C@H](CCCCN)NC(=O)[C@H](CO)NC(=O)[C@H](Cc1ccc(O)cc1)NC(=O)[C@H](CC(=O)O)NC(=O)[C@H](CO)NC(=O)[C@@H](NC(=O)[C@H](Cc1ccccc1)NC(=O)[C@@H](NC(=O)CNC(=O)[C@H](CCC(N)=O)NC(=O)[C@H](CO)N[C@@H](Cc1cnc[nH]1)C(=O)O)[C@@H](C)O)[C@@H](C)O)[C@@H](C)O)C(C)C)C(=O)N[C@@H](CC(N)=O)C(=O)N[C@H](C(N)=O)[C@@H](C)O` were 9.89 and 9.24.
For `CSCC[C@H](NC(=O)[C@H](CC(C)C)NC(=O)[C@H](Cc1c[nH]c2ccccc12)NC(=O)[C@H](CCC(N)=O)NC(=O)[C@@H](NC(=O)[C@H](Cc1ccccc1)NC(=O)[C@H](CC(=O)O)NC(=O)[C@H](CCCCN)NC(=O)[C@H](C)NC(=O)[C@H](CCCN=C(N)N)NC(=O)[C@H](CCCN=C(N)N)NC(=O)[C@H](CCC(=O)O)NC(=O)[C@H](CC(=O)O)NC(=O)[C@H](CC(C)C)NC(=O)[C@H](Cc1ccc(O)cc1)NC(=O)[C@H](CCCCN)NC(=O)[C@H](CO)NC(=O)[C@H](Cc1ccc(O)cc1)NC(=O)[C@H](CC(=O)O)NC(=O)[C@H](CO)NC(=O)[C@@H](NC(=O)[C@H](Cc1ccccc1)NC(=O)[C@@H](NC(=O)CNC(=O)[C@H](CCC(N)=O)NC(=O)[C@H](CO)N[C@@H](Cc1cnc[nH]1)C(=O)O)[C@@H](C)O)[C@@H](C)O)C(C)C)C(=O)N[C@@H](CC(N)=O)C(=O)N[C@H](C(N)=O)[C@@H](C)O` the same measures were 10.11 and 10.15.
Take `CSCC[C@H](NC(=O)[C@H](CC(C)C)NC(=O)[C@H](Cc1c[nH]c2ccccc12)NC(=O)[C@H](CCC(N)=O)NC(=O)[C@@H](NC(=O)[C@H](Cc1ccccc1)NC(=O)[C@H](CC(=O)O)NC(=O)[C@H](CCCCN)NC(=O)[C@H](C)NC(=O)[C@H](CCCN=C(N)N)NC(=O)[C@H](CCC(N)=O)NC(=O)[C@H](CCC(=O)O)NC(=O)[C@H](CC(=O)O)NC(=O)[C@H](CC(C)C)NC(=O)[C@H](Cc1ccc(O)cc1)NC(=O)[C@H](CCCCN)NC(=O)[C@H](CO)NC(=O)[C@H](Cc1ccc(O)cc1)NC(=O)[C@H](CC(=O)O)NC(=O)[C@H](CO)NC(=O)[C@@H](NC(=O)[C@H](Cc1ccccc1)NC(=O)[C@@H](NC(=O)CNC(=O)[C@H](CCC(N)=O)NC(=O)[C@H](CO)N[C@@H](Cc1cnc[nH]1)C(=O)O)[C@@H](C)O)[C@@H](C)O)C(C)C)C(=O)N[C@@H](CC(N)=O)C(=O)N[C@H](C(N)=O)[C@@H](C)O`: the results for the pEC50 (at Glucagon receptor; in test [1]) were 10.32 and 10.12, respectively.
For the compound `CSCC[C@H](NC(=O)[C@H](CC(C)C)NC(=O)[C@H](Cc1c[nH]c2ccccc12)NC(=O)[C@H](CCC(N)=O)NC(=O)[C@@H](NC(=O)[C@H](Cc1ccccc1)NC(=O)[C@H](CC(=O)O)NC(=O)[C@H](CCCCN)NC(=O)[C@H](C)NC(=O)[C@H](C)NC(=O)[C@H](CCCNC(=N)N)NC(=O)[C@H](CCC(=O)O)NC(=O)[C@H](CC(=O)O)NC(=O)[C@H](CC(C)C)NC(=O)[C@H](Cc1ccc(O)cc1)NC(=O)[C@H](CCCCN)NC(=O)[C@H](CO)NC(=O)[C@H](Cc1ccc(O)cc1)NC(=O)[C@H](CC(=O)O)NC(=O)[C@H](CO)NC(=O)[C@@H](NC(=O)[C@H](Cc1ccccc1)NC(=O)[C@@H](NC(=O)CNC(=O)[C@H](CCC(N)=O)NC(=O)[C@H](CO)N[C@@H](Cc1cnc[nH]1)C(=O)O)[C@@H](C)O)[C@@H](C)O)C(C)C)C(=O)N[C@@H](CC(N)=O)C(=O)N[C@H](C(N)=O)[C@@H](C)O`, the pEC50 was 10.06 at Glucagon receptor and 10.55 in test [1].
For `CSCC[C@H](NC(=O)[C@H](CC(C)C)NC(=O)[C@H](Cc1c[nH]c2ccccc12)NC(=O)[C@H](CCC(N)=O)NC(=O)[C@@H](NC(=O)[C@H](Cc1ccccc1)NC(=O)[C@H](CCC(=O)O)NC(=O)[C@H](CCCCN)NC(=O)[C@H](C)NC(=O)[C@H](CCCNC(=N)N)NC(=O)[C@H](CCCNC(=N)N)NC(=O)[C@H](CCC(=O)O)NC(=O)[C@H](CC(=O)O)NC(=O)[C@H](CC(C)C)NC(=O)[C@H](Cc1ccc(O)cc1)NC(=O)[C@H](CCCCN)NC(=O)[C@H](CO)NC(=O)[C@H](Cc1ccc(O)cc1)NC(=O)[C@H](CC(=O)O)NC(=O)[C@H](CO)NC(=O)[C@@H](NC(=O)[C@H](Cc1ccccc1)NC(=O)[C@@H](NC(=O)CNC(=O)[C@H](CCC(N)=O)NC(=O)[C@H](CO)N[C@@H](Cc1cnc[nH]1)C(=O)O)[C@@H](C)O)[C@@H](C)O)C(C)C)C(=O)N[C@@H](CC(N)=O)C(=O)N[C@H](C(N)=O)[C@@H](C)O` the same measures were 10.17 and 10.12.
For `CC[C@H](C)[C@H](NC(=O)[C@H](Cc1ccccc1)NC(=O)[C@H](CC(=O)O)NC(=O)[C@H](CCCCN)NC(=O)[C@H](C)NC(=O)[C@H](CCCNC(=N)N)NC(=O)[C@H](CCCNC(=N)N)NC(=O)[C@H](CCC(=O)O)NC(=O)[C@H](CC(=O)O)NC(=O)[C@H](CC(C)C)NC(=O)[C@H](Cc1ccc(O)cc1)NC(=O)[C@H](CCCCN)NC(=O)[C@H](CO)NC(=O)[C@H](Cc1ccc(O)cc1)NC(=O)[C@H](CC(=O)O)NC(=O)[C@H](CO)NC(=O)[C@@H](NC(=O)[C@H](Cc1ccccc1)NC(=O)[C@@H](NC(=O)CNC(=O)[C@H](CCC(N)=O)NC(=O)[C@H](CO)N[C@@H](Cc1cnc[nH]1)C(=O)O)[C@@H](C)O)[C@@H](C)O)C(=O)N[C@@H](CCC(N)=O)C(=O)N[C@@H](Cc1c[nH]c2ccccc12)C(=O)N[C@@H](CC(C)C)C(=O)N[C@@H](CCSC)C(=O)N[C@@H](CC(N)=O)C(=O)N[C@H](C(=O)N[C@H](C(N)=O)[C@@H](C)O)[C@@H](C)O` the same measures were 10.14 and 10.17.
Taken in the same sequence, the figures for `CSCC[C@H](NC(=O)[C@H](CC(C)C)NC(=O)[C@H](Cc1c[nH]c2ccccc12)NC(=O)[C@H](C)NC(=O)[C@@H](NC(=O)[C@H](Cc1ccccc1)NC(=O)[C@H](CC(=O)O)NC(=O)[C@H](CCCCN)NC(=O)[C@H](C)NC(=O)[C@H](CCCN=C(N)N)NC(=O)[C@H](CCCN=C(N)N)NC(=O)[C@H](CCC(=O)O)NC(=O)[C@H](CC(=O)O)NC(=O)[C@H](CC(C)C)NC(=O)[C@H](Cc1ccc(O)cc1)NC(=O)[C@H](CCCCN)NC(=O)[C@H](CO)NC(=O)[C@H](Cc1ccc(O)cc1)NC(=O)[C@H](CC(=O)O)NC(=O)[C@H](CO)NC(=O)[C@@H](NC(=O)[C@H](Cc1ccccc1)NC(=O)[C@@H](NC(=O)CNC(=O)[C@H](CCC(N)=O)NC(=O)[C@H](CO)N[C@@H](Cc1cnc[nH]1)C(=O)O)[C@@H](C)O)[C@@H](C)O)C(C)C)C(=O)N[C@@H](CC(N)=O)C(=O)N[C@H](C(N)=O)[C@@H](C)O` were 10.10 and 10.06.
Take `CSCC[C@H](NC(=O)[C@H](CC(C)C)NC(=O)[C@H](Cc1c[nH]c2ccccc12)NC(=O)[C@H](CCC(N)=O)NC(=O)[C@@H](NC(=O)[C@H](Cc1ccccc1)NC(=O)[C@H](CC(=O)O)NC(=O)[C@H](CCC(N)=O)NC(=O)[C@H](C)NC(=O)[C@H](CCCNC(=N)N)NC(=O)[C@H](CCCNC(=N)N)NC(=O)[C@H](CCC(=O)O)NC(=O)[C@H](CC(=O)O)NC(=O)[C@H](CC(C)C)NC(=O)[C@H](Cc1ccc(O)cc1)NC(=O)[C@H](CCCCN)NC(=O)[C@H](CO)NC(=O)[C@H](Cc1ccc(O)cc1)NC(=O)[C@H](CC(=O)O)NC(=O)[C@H](CO)NC(=O)[C@@H](NC(=O)[C@H](Cc1ccccc1)NC(=O)[C@@H](NC(=O)CNC(=O)[C@H](CCC(=O)O)NC(=O)[C@H](CO)N[C@@H](Cc1cnc[nH]1)C(=O)O)[C@@H](C)O)[C@@H](C)O)C(C)C)C(=O)N[C@@H](CC(N)=O)C(=O)N[C@H](C(N)=O)[C@@H](C)O`: the negative logarithm of the EC50 (pEC50) at Glucagon receptor is 8.43; in test [1], 9.96.
